Data as given in patent US20170269061A1, “METHOD FOR ASSESSING SENSITIVITY OF A TARGET DRUG IN VITRO AND A BIOMARKER USED THEREOF” (Tunghai University, priority 2016, published 2017).

Assays:
[1] = system: MDA-MB-231, SKBR-3 and BT-474 cells; assay: Phase contrast observation of treated cells (Cell Experiment II); assay type: cell-based; details: 1 μg/ml paclitaxel, 72 hour; compared with 10 μg/ml trastuzumab and 1 μg/ml T-DM1
SKBR-3 cells [2] = details: 1 μg/ml T-DM1 vs 10 μg/ml trastuzumab, 72 hour, p<0.01
Description: After culturing each of the cells under different condition in example 7, 0.1 ml of 0.4% trypan blue and deionized water (1:1) was added. Dead cells were stained blue, while live cells remained unstained. Therefore, the number of dead cells could be estimated and cell viability estimated with a hemocytometer. Wherein, the cell mortality was expressed as the percentage of trypan blue-positive cells compared to the total number of cells and the viability percentage was presented by the number of live cells divided by the number of untreated control cells×100.

SKBR-3 cells [3] = system: SKBR-3 cells
Description: Pro-survival protein Bcl-2 expression in each of the cells, culturing under different condition in example 7 at 48 hours, were determined by Western blot.
Using an annexin V detection kit (Invitrogen, ThermoFisher, Waltham, Mass., USA) to label cell surface phosphatidylserine of apoptotic cells and analysis these stained cells by flow cytometry. […] Co-staining images were taken by inverted fluorescence microscope shown in FIG. 15, wherein green color indicates annexin V positive apoptotic cell, red color indicates PI positive necrotic cell. Annexin V stained cells with PI positive staining were excluded as necrotic cells, apoptotic cells with only annexin V staining were counted and divided by total cells as the percentage of apoptosis. […] And, annexin V positive/PI negative apoptosis in FIG. 15 was quantified.

BT-474 cells = assay: Immunofluorescence microscopy of drug localization (Cell Experiment I); assay type: cell-based; details: T-DM1 1 μg/ml or trastuzumab 10 μg/ml for 30 min
Description: (§1) After washing, each of the cells was fixed with 3.7% formaldehyde and permeabilized with 0.1% Triton-X 100. The fixed cells were incubated with rabbit anti-caveolin-1 antibody (1:100 dilution in PBS/0.1% Triton-100/3% BSA) at room temperature for 1 hour and then incubated with Cy3-conjugated anti-rabbit secondary antibodies (1:200 dilution in PBS/0.1% Triton-100/3% BSA) at room temperature for 1 hour.

SKBR-3 cells [4] = assay: as above; assay type: cell-based; details: T-DM1 1 μg/ml or trastuzumab 10 μg/ml for 30 min, co-staining with caveolin-1
Description: as §1

SKBR-3 cells [5] = details: SKBR-3 with caveolin-1 siRNA; T-DM1 72 hours; p<0.05
Description: BT-474 cells were grown on plates in normal growth medium without antibiotics, and Lipofectamine 2000 transfection reagent (Invitrogen, ThermoFisher, Waltham, Mass., USA) was used to induce GFP-tagged caveolin-1 (Addgene, Cambridge, Mass., USA) overexpression. Caveolin-1siRNA (Dharmacon, GE health care, Lafayette, Colo., USA) was used in the knockdown experiment in SKBR-3 cells.

| Molecule | cytotoxicity (phase contrast) [1] | cell sensitivity (cell viability) versus trastuzumab (SKBR-3 cells [2]) | Bcl-2 expression level (SKBR-3 cells [3]; 1 μg/ml T-DM1, 48 hours, Western blot) | drug sensitivity (cell viability) with pan-caspase inhibitor Z-VAD-FMK (SKBR-3 cells [3]; 1 μg/ml T-DM1 plus Z-VAD-FMK) | necrotic cells (PI staining) (SKBR-3 cells [3]; T-DM1 treated) | percentage of apoptosis (annexin V) (SKBR-3 cells [3]; T-DM1 treated) | localization of drug in cells (BT-474 cells) | localization of drug in cells (SKBR-3 cells [4]) | T-DM1 efficacy on CAV-1 knockdown (SKBR-3 cells [5]) |
| --- | --- | --- | --- | --- | --- | --- | --- | --- | --- |
| CC(=O)O[C@H]1C(=O)[C@@]2(C)[C@H]([C@H](OC(=O)c3ccccc3)[C@]3(O)C[C@H](OC(=O)[C@H](O)[C@@H](NC(=O)c4ccccc4)c4ccccc4)C(C)=C1C3(C)C)[C@]1(OC(C)=O)CO[C@@H]1C[C@@H]2O [paclitaxel] | most cytotoxicity | – | – | – | – | – | – | – | – |
| trastuzumab emtansine [T-DM1] | – | significantly more sensitive | lower level of Bcl-2 | decreased | fewer necrotic cells | increased percentage of apoptosis | localized only in the cell membrane | colocalized in the SKBR-3 cell membrane and cytosol | significantly reduced T-DM1 efficacy |
